# Columns and labels:
# Type in all cases: cell-based, human
# SW620 cells [1] = assay: Ribosome profiling of SW620 cells (transcription, translational rate, translational efficiency); conditions: 8 hours
# Experimental: SW620 human colon cancer cells were cultured in DMEM media supplemented with penicillin G (100 U/ml), streptomycin (100 μg/ml), and 10% FBS in a humidified atmosphere of 5% CO2 maintained at 37° C.
# (§1) SW620 cells (ATCC, passage 12) were seeded at about 75% confluence 24 hrs prior to drug treatment. […] About 6×10^6 cells/10 cm plate and about 1×10^6 cells/well of a 6-well plate were harvested for ribosome profiling and Western blot analysis, respectively, following drug treatment.
# SW620 cells [2] = assay: Western blot of phosphorylation of protein translation components in SW620 cells
# Experimental: as §1
# Cells were washed with PBS and lysed in 1× cell lysis buffer (Cell Signaling) for 15 min at 4° C. Lysates were sonicated briefly, clarified by centrifugation for 15 min at 14, 000 rpm, and supernatants were then collected. Protein concentration in the soluble fraction was determined by BCA protein assay (Thermo Scientific). A 4-20% Bis-Tris gradient gel (Invitrogen) was used to resolve 20 μg of protein and transferred to nitrocellulose membrane. The resulting membranes were blocked for 1 hr at room temperature with Odyssey blocking solution (LI-COR) and then incubated with primary antibodies at 4° C. overnight. The following day, the blots were washed 3 times, 10 min each in TBST, and incubated with IR-conjugated goat anti-rabbit IgG secondary antibody (IRDye 800 CW at 1:20,000; LI-COR) for 1 hour at room temperature. The blots were then washed, scanned, and specific proteins were detected using the LI-COR Odyssey infrared imager. The following antibodies from Cell Signaling were used at 1:1000 dilution: anti-phospho-eIF4E(Ser209)(#9741), anti-phospho-rpS6(Ser235/236)(#4858), anti-phospho-ERK1/2(Thr202/Tyr204)(#4370), anti-phospho-p70S6K(Thr421/Ser424)(#9204), anti-phospho-p90RSK(Thr359/Ser363)(#9344), anti-phospho-4EBP(Ser65), anti-phospho-pAKT(Ser473), anti-phospho-eIF4E(Ser209), and anti-β-actin (#4970). Actin was used as a loading amount control.
# SW620 cells [3] = assay: Proliferation assay on SW620 cells
smiles,measurement,setting,value
CC(=O)Nc1cccc(-n2c(=O)n(C3CC3)c(=O)c3c(Nc4ccc(I)cc4F)n(C)c(=O)c(C)c32)c1 [GSK212],Profile TE,"SW620 cells [1]; gene LIF, 250 nM",0.9 log2 MEKi/DMSO
same,Profile rna,"SW620 cells [1]; gene LIF, 250 nM",−1.7 log2 MEKi/DMSO
same,Profile rpf,"SW620 cells [1]; gene LIF, 250 nM",−0.9 log2 MEKi/DMSO
same,Profile TE,"SW620 cells [1]; gene LNK/SH2B3, 250 nM",−0.9 log2 MEKi/DMSO
same,Profile rna,"SW620 cells [1]; gene LNK/SH2B3, 250 nM",0.2 log2 MEKi/DMSO
same,Profile rpf,"SW620 cells [1]; gene LNK/SH2B3, 250 nM",−0.7 log2 MEKi/DMSO
same,Profile TE,"SW620 cells [1]; gene MAFF, 250 nM",0.6 log2 MEKi/DMSO
same,Profile rna,"SW620 cells [1]; gene MAFF, 250 nM",−1.7 log2 MEKi/DMSO
same,Profile rpf,"SW620 cells [1]; gene MAFF, 250 nM",−1.1 log2 MEKi/DMSO
same,Profile TE,"SW620 cells [1]; gene MAP2K3, 250 nM",1.0 log2 MEKi/DMSO
same,Profile rna,"SW620 cells [1]; gene MAP2K3, 250 nM",−1.6 log2 MEKi/DMSO
same,Profile rpf,"SW620 cells [1]; gene MAP2K3, 250 nM",−0.6 log2 MEKi/DMSO
same,Profile TE,"SW620 cells [1]; gene MYC, 250 nM",−0.3 log2 MEKi/DMSO
same,Profile rna,"SW620 cells [1]; gene MYC, 250 nM",−1.3 log2 MEKi/DMSO
same,Profile rpf,"SW620 cells [1]; gene MYC, 250 nM",−1.6 log2 MEKi/DMSO
same,Profile TE,"SW620 cells [1]; gene PHLDA2, 250 nM",1.1 log2 MEKi/DMSO
same,Profile rna,"SW620 cells [1]; gene PHLDA2, 250 nM",−2.1 log2 MEKi/DMSO
same,Profile rpf,"SW620 cells [1]; gene PHLDA2, 250 nM",−1.1 log2 MEKi/DMSO
same,Profile TE,"SW620 cells [1]; gene PLK3, 250 nM",0.7 log2 MEKi/DMSO
same,Profile rna,"SW620 cells [1]; gene PLK3, 250 nM",−3.1 log2 MEKi/DMSO
same,Profile rpf,"SW620 cells [1]; gene PLK3, 250 nM",−2.4 log2 MEKi/DMSO
same,Profile TE,"SW620 cells [1]; gene POLR1C, 250 nM",0.2 log2 MEKi/DMSO
same,Profile rna,"SW620 cells [1]; gene POLR1C, 250 nM",−0.8 log2 MEKi/DMSO
same,Profile rpf,"SW620 cells [1]; gene POLR1C, 250 nM",−0.6 log2 MEKi/DMSO
same,Profile TE,"SW620 cells [1]; gene POLR3G, 250 nM",−0.1 log2 MEKi/DMSO
same,Profile rna,"SW620 cells [1]; gene POLR3G, 250 nM",−0.7 log2 MEKi/DMSO
same,Profile rpf,"SW620 cells [1]; gene POLR3G, 250 nM",−0.8 log2 MEKi/DMSO
same,Profile TE,"SW620 cells [1]; gene PPAN, 250 nM",−0.7 log2 MEKi/DMSO
same,Profile rna,"SW620 cells [1]; gene PPAN, 250 nM",−0.4 log2 MEKi/DMSO
same,Profile rpf,"SW620 cells [1]; gene PPAN, 250 nM",−1.1 log2 MEKi/DMSO
same,Profile TE,"SW620 cells [1]; gene PPAT, 250 nM",−0.3 log2 MEKi/DMSO
same,Profile rna,"SW620 cells [1]; gene PPAT, 250 nM",−0.4 log2 MEKi/DMSO
same,Profile rpf,"SW620 cells [1]; gene PPAT, 250 nM",−0.7 log2 MEKi/DMSO
same,Profile TE,"SW620 cells [1]; gene PYCRL, 250 nM",0.1 log2 MEKi/DMSO
same,Profile rna,"SW620 cells [1]; gene PYCRL, 250 nM",−0.2 log2 MEKi/DMSO
same,Profile rpf,"SW620 cells [1]; gene PYCRL, 250 nM",0.0 log2 MEKi/DMSO
same,Profile TE,"SW620 cells [1]; gene RRS1, 250 nM",0.1 log2 MEKi/DMSO
same,Profile rna,"SW620 cells [1]; gene RRS1, 250 nM",−0.9 log2 MEKi/DMSO
same,Profile rpf,"SW620 cells [1]; gene RRS1, 250 nM",−0.8 log2 MEKi/DMSO
same,Profile TE,"SW620 cells [1]; gene SEMA6A, 250 nM",−1.5 log2 MEKi/DMSO
same,Profile rna,"SW620 cells [1]; gene SEMA6A, 250 nM",2.3 log2 MEKi/DMSO
same,Profile rpf,"SW620 cells [1]; gene SEMA6A, 250 nM",0.7 log2 MEKi/DMSO
same,Profile TE,"SW620 cells [1]; gene SLC1A5, 250 nM",−0.3 log2 MEKi/DMSO
same,Profile rna,"SW620 cells [1]; gene SLC1A5, 250 nM",−0.1 log2 MEKi/DMSO
same,Profile rpf,"SW620 cells [1]; gene SLC1A5, 250 nM",−0.5 log2 MEKi/DMSO
same,Profile TE,"SW620 cells [1]; gene SLC4A7, 250 nM",−0.9 log2 MEKi/DMSO
same,Profile rna,"SW620 cells [1]; gene SLC4A7, 250 nM",−0.2 log2 MEKi/DMSO
same,Profile rpf,"SW620 cells [1]; gene SLC4A7, 250 nM",−1.1 log2 MEKi/DMSO
same,Profile TE,"SW620 cells [1]; gene SPRED2, 250 nM",−1.3 log2 MEKi/DMSO
same,Profile rna,"SW620 cells [1]; gene SPRED2, 250 nM",−2.1 log2 MEKi/DMSO
same,Profile rpf,"SW620 cells [1]; gene SPRED2, 250 nM",−3.5 log2 MEKi/DMSO
same,Profile TE,"SW620 cells [1]; gene SPRY2, 250 nM",0.4 log2 MEKi/DMSO
same,Profile rna,"SW620 cells [1]; gene SPRY2, 250 nM",−1.7 log2 MEKi/DMSO
same,Profile rpf,"SW620 cells [1]; gene SPRY2, 250 nM",−1.3 log2 MEKi/DMSO
same,Profile TE,"SW620 cells [1]; gene SPRY4, 250 nM",−2.0 log2 MEKi/DMSO
same,Profile rna,"SW620 cells [1]; gene SPRY4, 250 nM",−5.2 log2 MEKi/DMSO
same,Profile rpf,"SW620 cells [1]; gene SPRY4, 250 nM",−7.1 log2 MEKi/DMSO
same,Profile TE,"SW620 cells [1]; gene TNC, 250 nM",−1.6 log2 MEKi/DMSO
same,Profile rna,"SW620 cells [1]; gene TNC, 250 nM",1.1 log2 MEKi/DMSO
same,Profile rpf,"SW620 cells [1]; gene TNC, 250 nM",−0.5 log2 MEKi/DMSO
same,Profile TE,"SW620 cells [1]; gene TNFRSF12A, 250 nM",0.2 log2 MEKi/DMSO
same,Profile rna,"SW620 cells [1]; gene TNFRSF12A, 250 nM",−2.2 log2 MEKi/DMSO
same,Profile rpf,"SW620 cells [1]; gene TNFRSF12A, 250 nM",−2.0 log2 MEKi/DMSO
same,Profile TE,"SW620 cells [1]; gene WDR3, 250 nM",−1.0 log2 MEKi/DMSO
same,Profile rna,"SW620 cells [1]; gene WDR3, 250 nM",0.0 log2 MEKi/DMSO
same,Profile rpf,"SW620 cells [1]; gene WDR3, 250 nM",−1.0 log2 MEKi/DMSO
same,Profile TE,"SW620 cells [1]; gene YRDC, 250 nM",0.1 log2 MEKi/DMSO
same,Profile rna,"SW620 cells [1]; gene YRDC, 250 nM",−0.7 log2 MEKi/DMSO
same,Profile rpf,"SW620 cells [1]; gene YRDC, 250 nM",−0.6 log2 MEKi/DMSO
same,"phosphorylation of S6, eIF4E and 4EBP1",SW620 cells [2]; 25 nM to 100 nM (data not shown),little or no effect
same,Phosphorylation of ERK and p90RSK,"SW620 cells [2]; 250 nM, 8 hrs",completely inhibited
same,phosphorylation of eIF4E,"SW620 cells [2]; 250 nM, 8 hrs",partial inhibition
same,phosphorylation of the ribosomal protein S6 (rpS6) and S6K (p70RSK),"SW620 cells [2]; 250 nM, 8 hrs",only partial inhibition
same,inhibition of proliferation or induction of apoptosis,SW620 cells [3]; 250 nM for 8 hours,No evidence
same,potency in 72 hour proliferation assays,SW620 cells [3]; 72 hour (data not shown),20 to 30 nM
